Reference: BindingDB's records for patent US20240051954 (Novartis, 2024)

Target: T1, Cyclic GMP-AMP synthase [147-522] (Homo sapiens, UniProt Q8N884)
T1 construct: 147-522
Experiment: Quantification of cGAS Protein Inhibition
Description: The enzyme solution was transferred into the reagent buffer to give a final concentration of 30 nM. […] The reaction plates were then centrifuged at 1000 rpm for 1 minute and incubated at room temperature for 1 h. […] The concentration of cGAMP was measured on a LC-MS/MS system consisting of a THERMO Dionex Ultimate LC system with a high pressure pump, an autosampler, a column heating compartment (Reinach, Switzerland) and a SCIEX Triple Quad 5500 (Framingham, MA, USA) mass spectrometer for detection. The sample plates were centrifuged for 10 minutes at 2000 rpm. Up to three plates were placed in the autosampler for injection. […] An isocratic flow of 1.0 mL/min solvent (60% ACN, 8 mM ammonium acetate, 5 mM ammonium hydroxide, 0.04% acetic acid) was applied and sprayed into the ion source of the mass spectrometers. The MS parameters were optimized based on the properties of the compounds to be detected and run in positive multi-reaction mode (MRM) based on the mass transitions. LC and MS parameters were also optimized to allow for a sample-to-sample measuring time of approximately 75 sec and a run time of 8 hours per 384-well plate. All data were analyzed with Excel; and the dose response curves were generated using the auto fitting function of XLfit.

T1 sequence (Q8N884 147-522): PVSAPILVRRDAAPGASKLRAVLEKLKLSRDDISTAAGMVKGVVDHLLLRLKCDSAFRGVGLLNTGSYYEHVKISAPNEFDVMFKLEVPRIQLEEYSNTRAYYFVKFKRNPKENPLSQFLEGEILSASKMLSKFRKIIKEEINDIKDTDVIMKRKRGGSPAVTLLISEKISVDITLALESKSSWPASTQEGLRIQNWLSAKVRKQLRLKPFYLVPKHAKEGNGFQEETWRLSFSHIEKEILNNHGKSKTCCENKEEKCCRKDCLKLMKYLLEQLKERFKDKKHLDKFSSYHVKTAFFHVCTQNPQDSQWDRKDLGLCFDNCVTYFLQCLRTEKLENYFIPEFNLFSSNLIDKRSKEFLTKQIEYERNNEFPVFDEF

- IC50: 121 nM
SMILES: COc1nc2c(-n3ccnc3)c(-c3nnc(C(O)C(F)F)[nH]3)n(C)c2cc1Cl (stereo unspecified) [US20240051954, Example 21]
